Patent US11267812B2 (Mirati Therapeutics, Inc., priority 2016, dated 2022)

system: Phospho-ERK in NCI-H358 cells expressing KRas G12C; assay: Cellular inhibition of KRas G12C by Phospho-ERK measurement in NCI-H358 cells; format: cell-based; conditions: Homo sapiens, NCI-H358, 3 h, read-out: IC50 (pERK(Thr202/Tyr204) normalized with GAPDH)
Procedure: The cellular inhibition of KRAs G12C by exemplary compounds of the present invention was determined by measuring the amount of a downstream marker of KRas activity, phosphorylated ERK (“Phospho-ERK”).
NCI-H358 cells (ATCC CRL-5807) express KRas G12C and were grown in RPMI medium supplemented with 10% fetal bovine serum, penicillin/streptomycin and 10 mM HEPES. Cells were plated in poly-D-Lysine coated 96-well plates at a concentration of 50,000 cells/well and allowed to attach for 8-12 hours. Diluted compounds were then added at a final concentration of 0.5% DMSO. After 3 hours, the medium was removed, 150 μL of 4% formaldehyde was added and the plates were incubated for 20 minutes. The plates were washed with PBS, and permeabilized using 150 μL of ice cold 100% methanol for 10 minutes. Non-specific antibody binding to the plates was blocked using 100 μL Licor Blocking Buffer (Li-Cor Biotechnology, Lincoln Nebr.) for 1 hour at room temperature. Positive control samples and samples lacking cells were parallel processed with test samples as standards.
The amount Phospho-ERK was determined using an antibody specific for the phosphorylated form of ERK and compared to the amount of GAPDH. Primary antibodies used for detection were added as follows: Phospho-ERK (Cell Signaling cs9101) diluted 1:500 and GAPDH (Millipore MAB374) diluted 1:5000 in Licor block+0.05% Tween 20. The plates were incubated for 2 hours at room temperature. The plates were washed with PBS+0.05% Tween 20.
Secondary antibodies used to visualize primary antibodies were added as follows: Anti-rabbit-680 diluted 1:1000 and Anti-mouse-800 diluted 1:1000 in Licor Block+0.050 Tween 20 and incubated for 1 hour at room temperature. The plates were washed with PBS+0.05% o Tween 20. A100 L aliquot of PBS was added to each well and the plates were read on a LICOR AERIUS plate reader.
The pERK(Thr202/Tyr204) signal was normalized with the GAPDH signal and percent of DMSO control values were calculated. IC50 values were generated using a 4 parameter fit of the dose response curve. Key: “A”≥0.001-≤1 μM; “B”[…] and ND=not determined.

Structure (SMILES)	IC50 [nM]
C=CC(=O)N1CCN(c2nc(OC[C@H]3CCN(C)C3)nc3c2CCN(c2cc(O)cc4ccccc24)C3)CC1 [Example 188, (S)-1-(4-(7-(3-hydroxynaphthalen-1-yl)-2-((1-methylpyrrolidin-3-yl)methoxy)-5,6,7,8-tetrahydropyrido[3,4-d]pyrimidin-4-yl)piperazin-1-yl)prop-2-en-1-one]	1 to 1000
C=CC(=O)N1CCN(c2nc(OC[C@H]3CCCN3C)nc3c2CCN(c2cc(O)cc4ccccc24)C3)CC1 [Example 187, (R)-1-(4-(7-(3-hydroxynaphthalen-1-yl)-2-((1-methylpyrrolidin-2-yl)methoxy)-5,6,7,8-tetrahydropyrido[3,4-d]pyrimidin-4-yl)piperazin-1-yl)prop-2-en-1-one]	1 to 1000

same assay, conditions: Homo sapiens; NCI-H358 cells, 3 hours compound treatment; read-out: IC50 (pERK(Thr202/Tyr204) normalized with GAPDH)

Structure (SMILES)	IC50 [nM]
C=CC(=O)N1CCN(c2nc(OCCCN3CCCC3)nc3c2CCN(c2cc(O)cc4ccccc24)C3)CC1 [Example 39, 1-(4-(7-(3-hydroxynaphthalen-1-yl)-2-(3-(pyrrolidin-1-yl)propoxy)-5,6,7,8-tetrahydropyrido[3,4-d]pyrimidin-4-yl)piperazin-1-yl)prop-2-en-1-one]	1 to 1000
C=CC(=O)N1CCN(c2nc(OC[C@@H]3C[C@H](F)CN3C)nc3c2CCN(c2cccc4ccccc24)C3)CC1CC#N (stereo partly drawn) [Example 221, 2-(1-acryloyl-4-(2-(((2S,4S)-4-fluoro-1-methylpyrrolidin-2-yl)methoxy)-7-(naphthalen-1-yl)-5,6,7,8-tetrahydropyrido[3,4-d]pyrimidin-4-yl)piperazin-2-yl)acetonitrile]	1 to 1000
C=CC(=O)N1CCN(c2nc(OCCN(CC)CC)nc3c2CCN(c2cc(O)cc4ccccc24)C3)CC1 [Example 102]	1 to 1000
C=CC(=O)N1CCN(c2nc(OCCCN3CCCCC3)nc3c2CCN(c2cc(O)cc4ccccc24)C3)CC1 [Example 38, 1-(4-(7-(3-hydroxynaphthalen-1-yl)-2-(3-(piperidin-1-yl)propoxy)-5,6,7,8-tetrahydropyrido[3,4-d]pyrimidin-4-yl)piperazin-1-yl)prop-2-en-1-one]	1 to 1000
C=CC(=O)N1CCN(c2nc(OCCCN3CCOCC3)nc3c2CCN(c2cc(O)cc4ccccc24)C3)CC1 [Example 74, 1-(4-(7-(3-hydroxynaphthalen-1-yl)-2-(3-morpholinopropoxy)-5,6,7,8-tetrahydropyrido[3,4-d]pyrimidin-4-yl)piperazin-1-yl)prop-2-en-1-one]	1 to 1000
C=CC(=O)N1CCN(c2nc(OC[C@@H]3CCCN3C)nc3c2CCN(c2c(C)ccc4cn[nH]c24)C3)CC1CC#N (stereo partly drawn) [Example 238, 2-(1-acryloyl-4-(7-(6-methyl-1H-indazol-7-yl)-2-(((S)-1-methylpyrrolidin-2-yl)methoxy)-5,6,7,8-tetrahydropyrido[3,4-d]pyrimidin-4-yl)piperazin-2-yl)acetonitrile]	1 to 1000
C=CC(=O)N1CCN(c2nc(OC[C@H]3CCCN3C)nc3c2CCN(c2cccc(F)c2C(F)(F)F)C3)C[C@@H]1CC#N [Example 274, 2-((S)-1-acryloyl-4-(7-(3-fluoro-2-(trifluoromethyl)phenyl)-2-(((R)-1-methylpyrrolidin-2-yl)methoxy)-5,6,7,8-tetrahydropyrido[3,4-d]pyrimidin-4-yl)piperazin-2-yl)acetonitrile]	1 to 1000
C=CC(=O)N1CCN(c2nc(OCCN3CCC[C@H](F)C3)nc3c2CCN(c2cc(O)cc4ccccc24)C3)CC1 [Example 111, (S)-1-(4-(2-(2-(3-fluoropiperidin-1-yl)ethoxy)-7-(3-hydroxynaphthalen-1-yl)-5,6,7,8-tetrahydropyrido[3,4-d]pyrimidin-4-yl)piperazin-1-yl)prop-2-en-1-one]	1 to 1000
C=CC(=O)N1CCN(c2nc(OC(C)CN(C)C)nc3c2CCN(c2cc(O)cc4ccccc24)C3)CC1 (stereo not shown) [Example 11, 1-(4-(2-((1-(dimethylamino)propan-2-yl)oxy)-7-(3-hydroxynaphthalen-1-yl)-5,6,7,8-tetrahydropyrido[3,4-d]pyrimidin-4-yl)piperazin-1-yl)prop-2-en-1-one]	1 to 1000
C=CC(=O)N1CCN(c2nc(OCC3CCN(C)C3)nc3c2CCN(c2cc(O)cc4ccccc24)C3)CC1 (stereo not shown) [Example 89, 1-(4-(7-(3-hydroxynaphthalen-1-yl)-2-((1-methylpyrrolidin-3-yl)methoxy)-5,6,7,8-tetrahydropyrido[3,4-d]pyrimidin-4-yl)piperazin-1-yl)prop-2-en-1-one]	1 to 1000
C=CC(=O)N1CCN(c2nc(OCCN3C[C@@H]4CC[C@H]3C4)nc3c2CCN(c2cc(O)cc4ccccc24)C3)CC1 [Example 77, 1-(4-(2-(2-((1S,4R)-2-azabicyclo[2.2.1]heptan-2-yl)ethoxy)-7-(3-hydroxynaphthalen-1-yl)-5,6,7,8-tetrahydropyrido[3,4-d]pyrimidin-4-yl)piperazin-1-yl)prop-2-en-1-one]	1 to 1000
C=CC(=O)N1CCN(c2nc(OCCCN3CCN(C)CC3)nc3c2CCN(c2cc(O)cc4ccccc24)C3)CC1 [Example 82, 1-(4-(7-(3-hydroxynaphthalen-1-yl)-2-(3-(4-methylpiperazin-1-yl)propoxy)-5,6,7,8-tetrahydropyrido[3,4-d]pyrimidin-4-yl)piperazin-1-yl)prop-2-en-1-one]	1 to 1000
C=CC(=O)N1CCN(c2nc(O[C@H](C)CN(C)C)nc3c2CCN(c2cc(O)cc4ccccc24)C3)[C@@H](C)C1 [Example 115, 1-((S)-4-(2-(((R)-1-(dimethylamino)propan-2-yl)oxy)-7-(3-hydroxynaphthalen-1-yl)-5,6,7,8-tetrahydropyrido[3,4-d]pyrimidin-4-yl)-3-methylpiperazin-1-yl)prop-2-en-1-one]	1 to 1000
C=CC(=O)N1CCN(c2nc(OCCCN3CCCOCC3)nc3c2CCN(c2cc(O)cc4ccccc24)C3)CC1 [Example 101, 1-(4-(2-(3-(1,4-oxazepan-4-yl)propoxy)-7-(3-hydroxynaphthalen-1-yl)-5,6,7,8-tetrahydropyrido[3,4-d]pyrimidin-4-yl)piperazin-1-yl)prop-2-en-1-one]	1 to 1000
C=CC(=O)N1CCN(c2nc(O[C@H](C)CN(C)C)nc3c2CCN(c2c(C)ccc4[nH]ncc24)C3)CC1CC#N (stereo partly drawn) [Example 152, 2-[4-[2-[(1R)-2-(dimethylamino)-1-methyl-ethoxy]-7-(5-methyl-1H-indazol-4-yl)-6,8-dihydro-5H-pyrido[3,4-d]pyrimidin-4-yl]-1-prop-2-enoyl-piperazin-2-yl]acetonitrile]	1 to 1000
C=CC(=O)N1CCN(c2nc(OC[C@@H]3CCCN3C(C)C)nc3c2CCN(c2cc(O)cc4ccccc24)C3)CC1 [Example 145, 1-[4-[7-(3-hydroxy-1-naphthyl)-2-[[(2S)-1-isopropylpyrrolidin-2-yl]methoxy]-6,8-dihydro-5H-pyrido[3,4-d]pyrimidin-4-yl]piperazin-1-yl]prop-2-en-1-one]	1 to 1000
C=CC(=O)N1CCN(c2nc(OCCN(C)C)nc3c2CCN(c2cc(O)cc4ccccc24)C3)C[C@@H]1CC#N [Example 176, 2-[(2S)-4-[2-[2-(dimethylamino)ethoxy]-7-(3-hydroxy-1-naphthyl)-6,8-dihydro-5H-pyrido[3,4-d]pyrimidin-4-yl]-1-prop-2-enoyl-piperazin-2-yl]acetonitrile]	1 to 1000
C=CC(=O)N1CCN(c2nc(O[C@H](C)CN3CC[C@H](OC)C3)nc3c2CCN(c2cc(O)cc4ccccc24)C3)CC1 [Example 64, 1-(4-(7-(3-hydroxynaphthalen-1-yl)-2-(((R)-1-((S)-3-methoxypyrrolidin-1-yl)propan-2-yl)oxy)-5,6,7,8-tetrahydropyrido[3,4-d]pyrimidin-4-yl)piperazin-1-yl)prop-2-en-1-one]	1 to 1000
C=CC(=O)N1CCN(c2nc(OC[C@@H]3CCCN3C)nc3c2CCN(c2cccnc2C(F)(F)F)C3)CC1CC#N (stereo partly drawn) [Example 226, 2-(1-acryloyl-4-(2-(((S)-1-methylpyrrolidin-2-yl)methoxy)-7-(2-(trifluoromethyl)pyridin-3-yl)-5,6,7,8-tetrahydropyrido[3,4-d]pyrimidin-4-yl)piperazin-2-yl)acetonitrile]	1 to 1000
C=CC(=O)N1CCN(c2nc(OC[C@@H]3CCCN3C)nc3c2CCN(c2cc(O)cc4ccccc24)C3)[C@@H](C)C1 [Example 202, 1-((S)-4-(7-(3-hydroxynaphthalen-1-yl)-2-(((S)-1-methylpyrrolidin-2-yl)methoxy)-5,6,7,8-tetrahydropyrido[3,4-d]pyrimidin-4-yl)-3-methylpiperazin-1-yl)prop-2-en-1-one]	1 to 1000
